Structures are written as SMILES.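 In this assay, cells in 96-well plates receive the compound at five concentrations for 48 hours. Endpoints are linearly interpolated between the surrounding concentrations. TGI denotes the concentration required for complete inhibition of growth.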

One assay concerns K-562 leukemia. Briefly: inhibition of tumour cell growth, NCI panel, 48 h.
In turn, `c1sc(NC2=NCCO2)c2c1CCCC2` yielded a TGI of more than 100 µM.
Still for that read-out and setting: the figure for `CC(=O)C(CN1CCCCC1)C(c1ccccc1)c1c(O)c2ccccc2oc1=O` (stereo unspecified) is more than 100 µM; for `O=c1oc2ccccc2c(O)c1C(c1cc(OCc2ccccc2)cc(OCc2ccccc2)c1)c1c(O)c2ccccc2oc1=O` it is more than 25.4 µM; for `Cc1cc(-c2nc3ccccc3s2)ccc1NS(=O)(=O)O` it is more than 100 µM.
On the same count and under the same terms, next, `Cc1cc2c(c(C(=O)NCCC(=O)O)c1)Oc1c(cc(C)cc1C(=O)NCCC(=O)O)S2`: more than 100 µM; `c1cc(-c2cnc(-c3ccc4c(c3)CCCO4)o2)ccn1`: 22.8 µM.

Another assay deals with LOX IMVI melanoma. In words: inhibition of tumour cell growth, NCI panel, 48 h.
For the molecule `O=C1CC2C=CC(O)C(C1)C2` (stereo unspecified), the TGI is more than 100 µM.
Still for that read-out and setting: next, `COC(=O)C1(Cc2ccccc2)Cc2cc3c(cc2C1=O)CCC3` (stereo unspecified): 79.1 µM; `N#CC1=C(N)OC2=C(CSc3ccccc32)C1c1ccc(Br)cc1` (stereo unspecified): 11.2 µM.
Still for that read-out and setting: next, `Cc1sc2nc3n(c(=O)c2c1C)N=CN(c1ccccc1)C3`: more than 100 µM.
The same measure, in the same setting: next, `COc1ccc(N2C(=O)C3c4[nH]c5ccc([N+](=O)[O-])cc5c4C4CCC(C(C)(C)C)CC4C3C2=O)cc1` (stereo unspecified): more than 100 µM; `COC(=O)C1=C(C(=O)OC)C2OC1C1C2C2(C)C(C)=C(C)C1(C)S2=O` (stereo unspecified): more than 100 µM; `CC(C)(C)OC(=O)NC(C)(C)C(=O)NCCC(=O)O`: more than 100 µM.
With `CCOC(=O)CCC(NC(=O)c1ccc(OCc2nc3cc(C(F)(F)F)ccc3nc2-c2ccccc2)cc1)C(=O)OCC` (stereo unspecified), the TGI was more than 100 µM.
Consider `O=C(O)c1ccc(NC(c2ccccc2)c2ccc3cccnc3c2O)cc1` (stereo unspecified), for which the TGI was more than 57.6 µM.
The same measure, in the same setting: next, `CCOC(=O)c1sc2nc(SC)nc3c2c1N=CN3c1ccc(Br)cc1`: more than 100 µM; `CC[C@@H]1CC[C@@H]2[C@H](CC[C@]3(C)[C@@H](O)CC[C@@H]23)[C@H]1C(=O)O`: more than 100 µM.
On the same count and under the same terms, next, `CCOC(=O)c1c(NC(=O)c2ccccc2)sc2c1CCCC2`: more than 100 µM; `Nc1nc(Cl)cc(NCC2(CO)CC(CCc3ccccc3)C2)n1` (stereo unspecified): more than 100 µM; `O=c1c2ccccc2[nH]c(=S)n1-c1ccc(N=Nc2cccc3c(O)cccc23)cc1`: more than 100 µM.
Take `N#C/C(=C\NC(=S)Nc1ccc(S(=O)(=O)Nc2ccccn2)cc1)C(N)=O`: the TGI was more than 100 µM.
In the case of `CC(=O)NC1C(OCc2ccccc2)OC(CO)C(O)C1OCC(=O)N[C@@H](C)C(=O)N[C@H](CCC(=O)NCCNCCNc1c2ccccc2nc2cccc([N+](=O)[O-])c12)C(N)=O` (stereo partly specified), the TGI stood at 61.9 µM.
Take `c1cc2nnc1SCCSCCSc1ccc(nn1)SCCSCCS2`: the TGI was more than 100 µM.
Still for that read-out and setting: next, `O=C(Cc1nc2ccc(C(=O)c3ccccc3)cc2[nH]c1=O)C(=O)Nc1ccc(Br)cc1`: more than 100 µM; `c1sc(NC2=NCCO2)c2c1CCCC2`: more than 100 µM.
Same read-out and setting: next, `CC(=O)C(CN1CCCCC1)C(c1ccccc1)c1c(O)c2ccccc2oc1=O` (stereo unspecified): more than 100 µM; `O=c1oc2ccccc2c(O)c1C(c1cc(OCc2ccccc2)cc(OCc2ccccc2)c1)c1c(O)c2ccccc2oc1=O`: 77.5 µM; `Cc1cc(-c2nc3ccccc3s2)ccc1NS(=O)(=O)O`: more than 51.2 µM.
The same measure, in the same setting: the figure for `Cc1cc2c(c(C(=O)NCCC(=O)O)c1)Oc1c(cc(C)cc1C(=O)NCCC(=O)O)S2` is more than 100 µM.
Consider `c1cc(-c2cnc(-c3ccc4c(c3)CCCO4)o2)ccn1`, for which the TGI stood at 29.7 µM.

In a further assay the test system is MDA-MB-435. Briefly: inhibition of tumour cell growth, NCI panel, 48 h.
`O=C1CC2C=CC(O)C(C1)C2` (stereo unspecified) came in with a TGI of more than 100 µM.
On the same count and under the same terms, next, `COC(=O)C1(Cc2ccccc2)Cc2cc3c(cc2C1=O)CCC3` (stereo unspecified): 36.9 µM.
The molecule `N#CC1=C(N)OC2=C(CSc3ccccc32)C1c1ccc(Br)cc1` (stereo unspecified) displayed a TGI of 7.82 µM.
As for `Cc1sc2nc3n(c(=O)c2c1C)N=CN(c1ccccc1)C3`, the TGI was more than 100 µM.
The same measure, in the same setting: the figure for `COc1ccc(N2C(=O)C3c4[nH]c5ccc([N+](=O)[O-])cc5c4C4CCC(C(C)(C)C)CC4C3C2=O)cc1` (stereo unspecified) is more than 100 µM; for `COC(=O)C1=C(C(=O)OC)C2OC1C1C2C2(C)C(C)=C(C)C1(C)S2=O` (stereo unspecified) it is 19.4 µM; for `CC(C)(C)OC(=O)NC(C)(C)C(=O)NCCC(=O)O` it is more than 100 µM.
In turn, `CCOC(=O)CCC(NC(=O)c1ccc(OCc2nc3cc(C(F)(F)F)ccc3nc2-c2ccccc2)cc1)C(=O)OCC` (stereo unspecified) displayed a TGI of more than 100 µM.
`O=C(O)c1ccc(NC(c2ccccc2)c2ccc3cccnc3c2O)cc1` (stereo unspecified) came in with a TGI of more than 100 µM.
`CCOC(=O)c1sc2nc(SC)nc3c2c1N=CN3c1ccc(Br)cc1`: the TGI was more than 100 µM.
`CC[C@@H]1CC[C@@H]2[C@H](CC[C@]3(C)[C@@H](O)CC[C@@H]23)[C@H]1C(=O)O` yielded a TGI of more than 100 µM.
The same measure, in the same setting: next, `CCOC(=O)c1c(NC(=O)c2ccccc2)sc2c1CCCC2`: more than 100 µM; `Nc1nc(Cl)cc(NCC2(CO)CC(CCc3ccccc3)C2)n1` (stereo unspecified): more than 100 µM; `O=c1c2ccccc2[nH]c(=S)n1-c1ccc(N=Nc2cccc3c(O)cccc23)cc1`: 68.9 µM.
The same measure, in the same setting: next, `N#C/C(=C\NC(=S)Nc1ccc(S(=O)(=O)Nc2ccccn2)cc1)C(N)=O`: more than 100 µM.
Same read-out and setting: the figure for `CC(=O)NC1C(OCc2ccccc2)OC(CO)C(O)C1OCC(=O)N[C@@H](C)C(=O)N[C@H](CCC(=O)NCCNCCNc1c2ccccc2nc2cccc([N+](=O)[O-])c12)C(N)=O` (stereo partly specified) is 71.1 µM; for `c1cc2nnc1SCCSCCSc1ccc(nn1)SCCSCCS2` it is more than 100 µM.
Turning to `O=C(Cc1nc2ccc(C(=O)c3ccccc3)cc2[nH]c1=O)C(=O)Nc1ccc(Br)cc1`, the TGI was more than 100 µM.
`c1sc(NC2=NCCO2)c2c1CCCC2` registered a TGI of more than 100 µM.
`CC(=O)C(CN1CCCCC1)C(c1ccccc1)c1c(O)c2ccccc2oc1=O` (stereo unspecified) showed a TGI of more than 100 µM.
On the same count and under the same terms, next, `O=c1oc2ccccc2c(O)c1C(c1cc(OCc2ccccc2)cc(OCc2ccccc2)c1)c1c(O)c2ccccc2oc1=O`: 31.3 µM.
In turn, `Cc1cc(-c2nc3ccccc3s2)ccc1NS(=O)(=O)O` had a TGI of more than 100 µM.
The same measure, in the same setting: next, `Cc1cc2c(c(C(=O)NCCC(=O)O)c1)Oc1c(cc(C)cc1C(=O)NCCC(=O)O)S2`: more than 100 µM.
Still for that read-out and setting: next, `c1cc(-c2cnc(-c3ccc4c(c3)CCCO4)o2)ccn1`: 28.3 µM.

The subject of a further assay is NCI/ADR-RES ovarian. Briefly: inhibition of tumour cell growth, NCI panel, 48 h.
In the case of `O=C1CC2C=CC(O)C(C1)C2` (stereo unspecified), the TGI was more than 100 µM.
Still for that read-out and setting: the figure for `COC(=O)C1(Cc2ccccc2)Cc2cc3c(cc2C1=O)CCC3` (stereo unspecified) is more than 100 µM.
With `N#CC1=C(N)OC2=C(CSc3ccccc32)C1c1ccc(Br)cc1` (stereo unspecified), the TGI was determined as 7.75 µM.
On to `Cc1sc2nc3n(c(=O)c2c1C)N=CN(c1ccccc1)C3`, for which the TGI is more than 100 µM.
Same read-out and setting: the figure for `COc1ccc(N2C(=O)C3c4[nH]c5ccc([N+](=O)[O-])cc5c4C4CCC(C(C)(C)C)CC4C3C2=O)cc1` (stereo unspecified) is more than 100 µM; for `COC(=O)C1=C(C(=O)OC)C2OC1C1C2C2(C)C(C)=C(C)C1(C)S2=O` (stereo unspecified) it is more than 66.5 µM.
Molecule `CC(C)(C)OC(=O)NC(C)(C)C(=O)NCCC(=O)O` registered a TGI of more than 100 µM.
In the case of `CCOC(=O)CCC(NC(=O)c1ccc(OCc2nc3cc(C(F)(F)F)ccc3nc2-c2ccccc2)cc1)C(=O)OCC` (stereo unspecified), the TGI is more than 100 µM.
The same measure, in the same setting: next, `O=C(O)c1ccc(NC(c2ccccc2)c2ccc3cccnc3c2O)cc1` (stereo unspecified): more than 45.3 µM.
The molecule `CCOC(=O)c1sc2nc(SC)nc3c2c1N=CN3c1ccc(Br)cc1` came in with a TGI of more than 100 µM.
`CC[C@@H]1CC[C@@H]2[C@H](CC[C@]3(C)[C@@H](O)CC[C@@H]23)[C@H]1C(=O)O`: the TGI was more than 100 µM.
Same read-out and setting: next, `CCOC(=O)c1c(NC(=O)c2ccccc2)sc2c1CCCC2`: more than 100 µM.

For the origin of these results see PubChem BioAssay (NCI).
